Our source for the IC50 values is US12281122B1, “PI3K inhibitors” (Cogent Biosciences, Inc., priority 2023, dated 2025).

Molecules are shown by their SMILES.

Experiment [1] deals with T47D (PI3Kα-H1047R) cell line. As to the kind of experiment: HTRF phospho-AKT(S473) cell assay in T47D cells. The format is cell-based, human. The settings on record: Homo sapiens, 2 hours compound incubation. Put shortly: (§1)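 T47D (PI3Kα-H1047R; RPMI, 10% FBS, insulin) and SKBR3 (wild-type PI3Kα; McCoy's 5A, 10% FBS) cells treated 2 h at 37 °C with 12-point 1:3 dilutions, top 5 μM and 10 μM respectively, ≤0.5% DMSO. SKBR3 stimulated with 70 ng/ml PDGF-BB for the last 15 min; lysate pAKT(S473) by HTRF, IC50 from curves.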

In experiment [2] the test system is SKBR3 (PI3Kα-Wild Type) cell line. As to the kind of experiment: HTRF phospho-AKT(S473) cell assay in SKBR3 cells. The settings on record: Homo sapiens, SK-BR-3, 2 hours compound incubation, PDGF-BB stimulated. The format is cell-based, human. An outline of the steps: as §1
Setting [3] is: HTRF phospho-AKT(S473), T47D (PI3Kα-H1047R) cells.
Setting [4] is: HTRF phospho-AKT(S473), SKBR3 (PI3Kα-Wild Type) cells.

Broadly, the IC50 is the midpoint of a concentration-inhibition curve. A low value points to higher potency.

In the case of `Cc1cc([C@@H](C)Nc2ccc(Cl)nc2C(=O)NS(C)(=O)=O)c2nc(N3CCN(c4ccnc(C5CC5)n4)CC3)n(C)c(=O)c2c1` [Compound 590, (R)-6-chloro-3-((1-(2-(4-(2-cyclopropylpyrimidin-4-yl)piperazin-1-yl)-3,6-dimethyl-4-oxo-3,4-dihydroquinazolin-8-yl)ethyl)amino)-N-(methylsulfonyl) picolinamide], the IC50 in experiment [1] (setting [3]) is below 0.25 µM; in experiment [2] (setting [4]) it was 1 to 5 µM.

`Cc1cc([C@@H](C)Nc2ccc(Cl)nc2C(=O)NS(C)(=O)=O)c2nc(-c3ccc4nc(C)nn4c3)n(C)c(=O)c2c1` [Compound 823, (R)-6-chloro-3-((1-(3,6-dimethyl-2-(2-methyl-[1,2,4]triazolo [1,5-a]pyridin-6-yl)-4-oxo-3,4-dihydroquinazolin-8-yl)ethyl)amino)-N-(methylsulfonyl) picolinamide]: the IC50 in experiment [1] (setting [3]) was 0.5 to 1 µM; in experiment [2] (setting [4]) it was at least 5 µM.

`Cc1cc([C@@H](C)Nc2ccc(Cl)nc2C(=O)NS(C)(=O)=O)c2nc(N3Cc4cn(C(F)(F)F)nc4C3)n(C)c(=O)c2c1` [Compound 210, (R)-6-chloro-3-((1-(3,6-dimethyl-4-oxo-2-(2-(trifluoromethyl)-2,6-dihydropyrrolo[3,4-c]pyrazol-5(4H)-yl)-3,4-dihydroquinazolin-8-yl)ethyl)amino)-N-(methylsulfonyl) picolinamide]: the IC50 in experiment [1] (T47D (PI3Kα-H1047R) cells, HTRF phospho-AKT(S473)) was below 0.25 µM; in experiment [2] (SKBR3 (PI3Kα-Wild Type) cells, HTRF phospho-AKT(S473)), 1 to 5 µM.

As to `Cc1cc([C@@H](C)Nc2ccc(Cl)nc2C(=O)NS(C)(=O)=O)c2nc(N3Cc4cn(CC(F)(F)F)nc4C3)n(C3CC3)c(=O)c2c1` [Compound 735, (R)-6-chloro-3-((1-(3-cyclopropyl-6-methyl-4-oxo-2-(2-(2,2,2-trifluoroethyl)-2,6-dihydropyrrolo[3,4-c]pyrazol-5(4H)-yl)-3,4-dihydroquinazolin-8-yl)ethyl)amino)-N-(methylsulfonyl) picolinamide], the IC50 in experiment [1] (setting [3]) was in the range of 0.25 to 0.5 µM; in experiment [2] (setting [4]) it was 1 to 5 µM.

Regarding `Cc1cc([C@@H](C)Nc2ccc(Cl)nc2C(=O)NS(C)(=O)=O)c2nc(N3CCC(n4ncnc4C)CC3)n(C)c(=O)c2c1` [Compound 549, (R)-6-chloro-3-((1-(3,6-dimethyl-2-(4-(5-methyl-1H-1,2,4-triazol-1-yl)piperidin-1-yl)-4-oxo-3,4-dihydroquinazolin-8-yl)ethyl)amino)-N-(methylsulfonyl) picolinamide], the IC50 in experiment [1] (setting [3]) was below 0.25 µM; in experiment [2] (setting [4]) it was 1 to 5 µM.

On to `Cc1cc([C@@H](C)Nc2ccc(Cl)nc2C(=O)NS(C)(=O)=O)c2nc(N3CCC(c4cc(C5CC5)[nH]n4)CC3)n(C)c(=O)c2c1` [Compound 511, (R)-6-chloro-3-((1-(2-(4-(5-cyclopropyl-1H-pyrazol-3-yl)piperidin-1-yl)-3,6-dimethyl-4-oxo-3,4-dihydroquinazolin-8-yl)ethyl)amino)-N-(methylsulfonyl) picolinamide], for which the IC50 in experiment [1] (setting [3]) was 0.5 to 1 µM; in experiment [2] (setting [4]), at least 5 µM.

For the compound `Cc1cc2c(=O)n(C)c(-c3ccc4nn(C)cc4c3)nc2c([C@@H](C)Nc2ccc(Cl)nc2C(=O)NS(C)(=O)=O)n1` [Compound 840, (R)-6-chloro-3-((1-(3,6-dimethyl-2-(2-methyl-2H-indazol-5-yl)-4-oxo-3,4-dihydropyrido[3,4-d]pyrimidin-8-yl)ethyl)amino)-N-(methylsulfonyl) picolinamide], the IC50 in experiment [1] (T47D (PI3Kα-H1047R) cell line, phospho-AKT(S473) HTRF) is 1 to 5 µM; in experiment [2] (SKBR3 (PI3Kα-Wild Type) cell line, phospho-AKT(S473) HTRF), 1 to 5 µM.

With `Cc1cc([C@@H](C)Nc2ccc(Cl)nc2C(=O)NS(C)(=O)=O)c2nc(N3CC[C@H](c4ccnc(C)n4)C3)n(C)c(=O)c2c1` (relative stereo) [Compound 599, 6-chloro-3-(((R)-1-(3,6-dimethyl-2-((R*)-3-(2-methylpyrimidin-4-yl)pyrrolidin-1-yl)-4-oxo-3,4-dihydroquinazolin-8-yl)ethyl)amino)-N-(methylsulfonyl) picolinamide], the IC50 in experiment [1] (setting [3]) is 0.25 to 0.5 µM; in experiment [2] (setting [4]), at least 5 µM.
